Results on 13 compounds are retold here after patent US10532048B2, “Tetrahydroisoquinolin-1-one derivative or salt thereof” (Seldar Pharma Inc., priority 2007, dated 2020).

For assay [1], the target named is BB2 receptor (Homo sapiens (Human), UniProt P30550). The experiment in a line: BB2 receptor binding test (125I [Tyr4] bombesin, PC-3 cell membrane sample). The conditions noted are these: 125I [Tyr4] bombesin 0.075 nM, room temperature 2 hours, read-out: IC50 (50% binding inhibition concentration). On the procedure:
A BB2 receptor binding test was carried out using a membrane sample prepared from a human prostate cancer-derived PC-3 cell. […] The cells detached by a trypsin treatment were added with a 50 mM Tris-HCl buffer (pH 7.4, containing 0.2 mg/ml trypsin inhibitor and 0.2 mg/ml benzamidine), and homogenized by Polytron. The cell suspension was centrifuged at 1,500 rpm for 10 minutes, and the supernatant thus obtained was subjected to 1 hour of ultracentrifugation at 37,000×g. The precipitate was suspended in the aforementioned buffer to a concentration of 0.4 mg protein/ml, and stored at −80° C.
The BB2 receptor binding test was carried out by the following method, and the receptor antagonistic activity of a compound to be tested was calculated. […] Non-specific binding was measured using 1 μM of bombesin. After completion of the incubation, the reaction solution was filtered through a Whatman GF/B filter which had been soaked in 0.5% polyethyleneimine. The radioactivity on the filter was measured using a microplate scintillation counter (Top Count, Perkin-Elmer Co., Ltd.). Further, Ex represents the number of the Example compound.

A further assay deals with male Wistar rat. The assay can be described thus: Restraint stress-induced defecation model. The class given is in vivo. The conditions noted are these: read-out: Inhibitory Rate (%) of number of feces excreted. As to the method:
The compound to be tested of the present test was used by dissolving in water for injection containing 20% propylene glycol+20% Tween 80 or a 0.5% MC (methyl cellulose) solution.
The number of feces excreted during a period from the restriction commencement to 1 hour thereafter was measured. Normal group was put into a separate cage, and number of feces excreted during 1 hour was measured in the same manner.

A further assay concerns the target 5-HT3 receptor (Homo sapiens (Human), UniProt P46098). Particulars: IBS patients; cited from earlier work.
Assay [2] deals with BB2 receptor. The conditions noted are these: stress-induced defecation model; cited from earlier work.
The test system of assay [3] is BB2 receptor. Particulars: abdominal pain model induced by large intestinal distension; cited from earlier work.
The mark [4] stands for this setting: oral administration 1 mg/kg, 15 minutes before restraint, feces counted for 1 hour.

Where two headings read alike, the source gives them in different places.

BB2 receptor (Homo sapiens (Human), UniProt P30550), sequence (P30550 whole entry): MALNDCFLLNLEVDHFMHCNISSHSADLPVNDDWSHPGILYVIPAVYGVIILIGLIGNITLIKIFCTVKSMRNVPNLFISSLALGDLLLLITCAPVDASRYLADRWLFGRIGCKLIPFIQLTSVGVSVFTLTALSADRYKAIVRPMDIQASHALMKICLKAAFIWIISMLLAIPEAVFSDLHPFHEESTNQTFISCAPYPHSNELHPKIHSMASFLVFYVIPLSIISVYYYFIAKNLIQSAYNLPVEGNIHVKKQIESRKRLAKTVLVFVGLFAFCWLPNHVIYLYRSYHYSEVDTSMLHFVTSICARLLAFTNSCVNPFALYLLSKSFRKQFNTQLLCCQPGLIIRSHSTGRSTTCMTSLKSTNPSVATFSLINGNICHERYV
5-HT3 receptor, sequence (P46098 24-478): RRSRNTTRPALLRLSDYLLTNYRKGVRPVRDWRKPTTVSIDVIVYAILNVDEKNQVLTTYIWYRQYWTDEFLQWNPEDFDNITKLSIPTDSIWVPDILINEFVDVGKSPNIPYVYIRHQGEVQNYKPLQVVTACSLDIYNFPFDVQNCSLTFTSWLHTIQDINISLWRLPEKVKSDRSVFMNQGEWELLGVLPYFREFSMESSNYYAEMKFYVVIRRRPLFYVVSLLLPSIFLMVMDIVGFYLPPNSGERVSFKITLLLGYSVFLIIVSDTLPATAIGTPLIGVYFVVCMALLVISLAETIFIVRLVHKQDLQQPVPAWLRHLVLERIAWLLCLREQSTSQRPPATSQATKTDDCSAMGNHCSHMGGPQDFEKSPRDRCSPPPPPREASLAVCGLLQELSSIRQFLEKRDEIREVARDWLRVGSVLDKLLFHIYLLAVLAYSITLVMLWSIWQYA

As to `O=C(NCCc1ccccn1)[C@@H]1c2ccccc2C(=O)N([C@H](CO)Cc2ccccc2)[C@H]1c1ccc(Cl)cc1Cl` [Ex 61], the IC50 on BB2 receptor [1] was 12.8 nM.
Regarding `C[C@@H](NC(=O)[C@@H]1c2ccccc2C(=O)N([C@H]2CCCC[C@@H]2NS(C)(=O)=O)[C@H]1c1ccc(Cl)cc1Cl)c1ccccc1` [Ex 236], on BB2 receptor [1], the IC50 is 3 nM.
For `CS(=O)(=O)N[C@H]1CCCC[C@@H]1N1C(=O)c2ccccc2[C@@H](C(=O)NOCc2cc(C(=O)O)cs2)[C@@H]1c1ccc(Cl)cc1Cl` [Ex 542], the IC50 at BB2 receptor [1] worked out at 4.7 nM. In the assay on male Wistar rat (1 h), the inhibition in vivo at 1 mg/kg was determined as 40%.
Turning to `CS(=O)(=O)N[C@H]1CCCC[C@@H]1N1C(=O)c2ccccc2[C@@H](C(=O)NOCc2cccc(C(=O)O)c2)[C@@H]1c1ccc(Cl)cc1Cl` [Ex 560], on BB2 receptor [1], the IC50 came to 4.8 nM. In the assay with male Wistar rat (setting [4]), the inhibition in vivo at 1 mg/kg was 62.1%.
As for `CS(=O)(=O)N[C@H]1CCCC[C@@H]1N1C(=O)c2ccccc2[C@@H](C(=O)NOCc2ccccn2)[C@@H]1c1ccc(Cl)cc1Cl` [Ex 589], the IC50 at BB2 receptor [1] was 5.7 nM. Besides, the inhibition in vivo at 1 mg/kg with male Wistar rat (setting [4]) came to 73.9%.
`CS(=O)(=O)N[C@H]1CCCC[C@@H]1N1C(=O)c2ccccc2[C@@H](C(=O)NOCc2cccc(OCC(=O)O)c2)[C@@H]1c1ccc(Cl)cc1Cl` [Ex 631]: the IC50 on BB2 receptor [1] is 4.5 nM. Further, in the assay on male Wistar rat (setting [4]), the inhibition in vivo at 1 mg/kg was found to be 53.8%.
In the same order, the values of `CS(=O)(=O)NC(=O)c1cccc(CCNC(=O)[C@@H]2c3ccccc3C(=O)N([C@H]3CCCC[C@@H]3NS(C)(=O)=O)[C@H]2c2ccc(Cl)cc2Cl)c1` [Ex 700] are 6.7 nM and 69.8%.
On the same counts, the results for `CS(=O)(=O)N[C@H]1CCCC[C@@H]1N1C(=O)c2ccccc2[C@@H](C(=O)NCCc2ccc(CC(=O)O)cc2)[C@@H]1c1ccc(Cl)cc1Cl` [Ex 701] are 7.4 nM and 41.3%.
As for `CS(=O)(=O)N[C@H]1CCCC[C@@H]1N1C(=O)c2ccccc2[C@@H](C(=O)NOCc2cccc(OCCCC(=O)O)c2)[C@@H]1c1ccc(Cl)cc1Cl` [Ex 709], on BB2 receptor [1], the IC50 was determined as 8.9 nM. For the same compound, the inhibition in vivo at 1 mg/kg in the assay on male Wistar rat (setting [4]) turned out to be 41.5%.
Take `CS(=O)(=O)N[C@H]1CCCC[C@@H]1N1C(=O)c2ccccc2[C@@H](C(=O)NCCc2cccc(C(F)(F)C(=O)O)c2)[C@@H]1c1ccc(Cl)cc1Cl` [Ex 712]: the IC50 on BB2 receptor [1] is 6.7 nM. Further, the inhibition in vivo at 1 mg/kg in the assay with male Wistar rat (setting [4]) is 55%.
`CS(=O)(=O)N[C@H]1CCCC[C@@H]1N1C(=O)c2ccccc2[C@@H](C(=O)NOCc2ccc(CC(=O)O)cc2)[C@@H]1c1ccc(Cl)cc1Cl` [Ex 856]: the IC50 on BB2 receptor [1] is 6.8 nM. Besides, the inhibition in vivo at 1 mg/kg in the assay on male Wistar rat (setting [4]) worked out at 61.4%.
`Cc1[nH]cnc1CN1CCc2c(c3ccccc3n2C)C1=O` [alosetron]: the “improving rate for abdominal symptoms and diarrhea” value on 5-HT3 receptor was 40 to 60%.
Take RC-3095: in the assay on BB2 receptor [2], the “efficacy for abnormal bowel motility” value is recorded as “effective”. In the assay with BB2 receptor [3], the “efficacy for abdominal symptom (abdominal muscle contraction reaction as index)” value is listed as “effective”.
